Values quoted from earlier work as cited in US20040024036A1, “Pharmaceutical composition for transdermal delivery of befloxatone” (priority 2000, published 2004).

How the values were obtained:
[1] = molecular target: T1, MAO-B (Homo sapiens, UniProt P27338); settings: MAO-A versus MAO-B
T1 sequence (P27338 1-520): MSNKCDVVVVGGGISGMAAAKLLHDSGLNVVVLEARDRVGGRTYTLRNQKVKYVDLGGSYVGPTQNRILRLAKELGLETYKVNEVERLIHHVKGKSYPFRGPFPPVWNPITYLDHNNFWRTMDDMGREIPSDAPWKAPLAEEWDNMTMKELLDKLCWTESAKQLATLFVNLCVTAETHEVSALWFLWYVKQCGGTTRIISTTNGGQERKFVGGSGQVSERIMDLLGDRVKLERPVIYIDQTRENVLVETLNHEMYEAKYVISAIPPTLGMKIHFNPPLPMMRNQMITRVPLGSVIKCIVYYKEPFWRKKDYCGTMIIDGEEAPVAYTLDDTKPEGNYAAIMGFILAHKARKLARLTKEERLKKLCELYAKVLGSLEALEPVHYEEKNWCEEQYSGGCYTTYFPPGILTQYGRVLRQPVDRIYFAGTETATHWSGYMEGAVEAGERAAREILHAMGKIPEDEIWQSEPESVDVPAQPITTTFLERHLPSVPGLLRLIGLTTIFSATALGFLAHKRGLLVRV

[2] = tested on: dopamine (DA) reuptake
[3] = tested on: serotonin (5-HT) reuptake
[4] = molecular target: T2, MAO-A (Homo sapiens, UniProt P21397); settings: reversible inhibitor
T2 sequence (P21397 1-527): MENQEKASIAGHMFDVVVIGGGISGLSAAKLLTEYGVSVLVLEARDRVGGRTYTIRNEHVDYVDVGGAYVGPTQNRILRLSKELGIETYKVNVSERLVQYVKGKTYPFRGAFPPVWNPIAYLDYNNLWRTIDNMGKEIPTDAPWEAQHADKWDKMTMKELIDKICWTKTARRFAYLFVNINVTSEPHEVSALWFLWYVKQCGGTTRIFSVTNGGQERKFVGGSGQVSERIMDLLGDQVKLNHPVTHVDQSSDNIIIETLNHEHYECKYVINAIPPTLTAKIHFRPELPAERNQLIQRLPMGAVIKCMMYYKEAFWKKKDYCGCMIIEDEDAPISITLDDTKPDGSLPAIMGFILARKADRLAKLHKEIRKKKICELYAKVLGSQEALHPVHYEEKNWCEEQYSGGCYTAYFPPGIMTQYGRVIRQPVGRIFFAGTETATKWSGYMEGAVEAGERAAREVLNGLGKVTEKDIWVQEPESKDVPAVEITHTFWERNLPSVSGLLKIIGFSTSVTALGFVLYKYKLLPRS

[5] = tested on: noradrenalin (NA) reuptake

selectivity toward the B isoform (MAO-B) [1]: very good selectivity
affinity for the A isoform (MAO-A) [4]: very high affinity
Structure (SMILES): COC[C@H]1CN(c2ccc(OCC[C@@H](O)C(F)(F)F)cc2)C(=O)O1 [befloxatone]
effect on dopamine (DA) reuptake [2]: does not affect
effect on serotonin (5-HT) reuptake [3]: does not affect
effect on noradrenalin (NA) reuptake [5]: does not affect
